From patent publication US20150190377A1, “NEURONAL REGENERATION” (The Regents of the University of California, a California …, priority 2014, published 2015) come the findings set out here.

Positions count from the first letter of the chain named.

One experiment relates to DRG neurons. Description: neurite outgrowth in DRG neurons after treatment with drugs. Conditions: vs control; p<0.05, t-test; FIG. 5B. It counts as cell-based. The text has this: (§1) FIGS. 5A-5F. Targeting candidate RAG regulatory network using small-molecules. Gene expression signatures after PNS injury were used to query drug-related expression profiles in the Connectivity Map. Using a pattern-matching algorithm, we selected three drugs (ambroxol, disulfiram and lasalocid) based on enrichment and specificity scores. FIG. 5A: Protein-protein interaction (edges) network of co-expressed and differentially expressed genes (nodes) after PNS injury depicting up-regulation and down-regulation after SN lesion; up-regulation and down-regulation after ambroxol treatment (from Connectivity Map). FIG. 5B: Histogram depicting differences in DRG neurite outgrowth after treatment with drugs. […] FIG. 5C: Histogram depicting differential expression of mRNA for critical genes in PPI network validated by qPCR of DRG neurons treated with […] ambroxol (4 days). Legend (FIG. 5C, top to bottom): ATF3, CASP3, EGR1, FOS, JAK2, JUN, KLF4, MYC, PLAUR, RELA, SMAD1, SP1, STAT1 and STAT3: FIGS. 5D-5F: Ambroxol concentration response. […] FIG. 5E: Photomicrographs of DRG neurons in presence of vehicle (control) or 40 μM ambroxol, immunostained for βIII-tubulin. Images acquired using ImagExpressmicro. Scale bar, 50 μm. FIG. 5F: Histogram depicting concentration-response for neurite outgrowth per neuron vs. ambroxol concentration, mean±SEM for three independent experiments. […]

Experiment [1] has as its system regeneration-associated marker genes. Description: q-RT-PCR of regeneration-associated marker genes after treatment with candidate drugs. The class given is cell-based, mouse. The following applies: N2A cell lines treated 48 hours, Gapdh internal control, FIG. 10. How it is done: FIG. 10. Quantitative real-time RT-PCR after treatment of candidate drugs. N2A cell lines were treated with the corresponding drugs for 48 hours and the expression levels of the marker genes was measured by q-RT-PCR, using Gapdh as internal control. Nodes represents the genes tested, the edges represent the direction of regulation (i.e., up-regulation, downregulation) and the edge size represents the extent of fold change.
The gene expression signatures were used to identify FDA approved drugs (Lamb 2007) that may modulate the signaling pathways and gene expression necessary for regeneration. […] Based on the results obtained from the pattern matching algorithm present within the Connectivity Map database, the top three matching expression patterns were chosen based on the connectivity and specificity score, which represented the drugs (ambroxol, lasalocid, and disulfiram). The identified compounds were tested for their effect on gene expression levels of regeneration-associated marker genes and to examine the effect on neurite outgrowth in DRG neurons. […] Since the original pattern was derived from non-neuronal cell lines (30), we tested if ambroxol can change the gene-expression levels of these markers in DRG neurons. […] But, it had no previous relationship to regeneration.

The target of experiment [2] is T1, PTEN (Homo sapiens, UniProt P60484).
T1 construct: Western blot analysis of cultured human (293), mouse (N2A) and rat (PC12) cells; endogenous in cells; host or cells: human 293 cells
Description: Western blot of phosphorylated AKT (PTEN inhibition), human 293 cells. It counts as cell-based. Conditions: increasing concentrations, pAKT (Ser473). How it is done: (§2) FIGS. 13A-13D. Western blot analysis of cultured human (293) (FIG. 13A), mouse (N2A) (FIG. 13B) and rat (PC12) (FIG. 13C) cells treated with Luteolin (P2) and Quercetin (P6). FIG. 13D: Protein levels of PTEN, AKT, pAKT (Ser473) and beta-Tubulin were measured.
(§3) The inhibition of PTEN was tested following the phosphorylated form of AKT.

For experiment [3], the target named is T2, PTEN (Mus musculus, UniProt O08586).
T2 construct: Western blot analysis of cultured human (293), mouse (N2A) and rat (PC12) cells; endogenous in cells; host or cells: mouse N2A cells
Description: Western blot of phosphorylated AKT (PTEN inhibition), mouse N2A cells. It counts as cell-based. The following applies: increasing concentrations, pAKT (Ser473). On the procedure: as §2, §3

The target of experiment [4] is T3, PTEN (Rattus norvegicus, UniProt O54857).
T3 construct: Western blot analysis of cultured human (293), mouse (N2A) and rat (PC12) cells; endogenous in cells; host or cells: rat PC12 cells
Description: Western blot of phosphorylated AKT (PTEN inhibition), rat PC12 cells. It counts as cell-based. Conditions: increasing concentrations, pAKT (Ser473). How it is done:
as §2, §3
In general terms: In western blotting, separated proteins are transferred to a membrane and probed.

The target of experiment [5] is T4, SOCS3 (Homo sapiens, UniProt O14543).
T4 construct: Western blot analysis of cultured human (293) cells; endogenous in cells; host or cells: human 293 cells
T4 sequence (O14543 1-225): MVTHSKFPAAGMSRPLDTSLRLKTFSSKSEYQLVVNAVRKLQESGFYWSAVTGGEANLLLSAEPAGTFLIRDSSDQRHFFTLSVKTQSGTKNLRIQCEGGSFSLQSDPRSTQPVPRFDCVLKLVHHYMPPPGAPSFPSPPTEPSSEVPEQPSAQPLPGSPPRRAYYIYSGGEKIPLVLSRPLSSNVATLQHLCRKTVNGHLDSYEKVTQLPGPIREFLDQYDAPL
Description: Western blot of phosphorylated STAT3 (SOCS3 inhibition), human 293 cells. Conditions: increasing concentration. The class given is cell-based. On the procedure:
(§4) Likewise, the inhibition of SOCS3 was tested following the phosphorylated form of STAT3.

Experiment [6] addresses T5, SOCS3 (Mus musculus, UniProt O35718).
T5 construct: Western blot analysis of cultured mouse (N2A) cells; endogenous in cells; host or cells: mouse N2A cells
T5 sequence (O35718 1-225): T4 sequence (O14543 1-225) with A133T, P137S, S138L, S152P, P155A, P160T, R162K
Description: Western blot of phosphorylated STAT3 (SOCS3 inhibition), mouse N2A cells. The following applies: increasing concentration. The class given is cell-based. On the procedure:
as §4

Experiment [7] has as its target T6, SOCS3 (Rattus norvegicus, UniProt O88583).
T6 construct: Western blot analysis of cultured rat (PC12) cells; endogenous in cells; host or cells: rat PC12 cells
T6 sequence (O88583 1-225): T4 sequence (O14543 1-225) with K85E, P137S, S138L, S145F, P148Q, S152P, P155A, S159G, P160T, R162K
The experiment is described as follows: Western blot of phosphorylated STAT3 (SOCS3 inhibition), rat PC12 cells. The following applies: increasing concentration. It counts as cell-based. On the procedure: as §4

For experiment [8], the system named is genes from the M77 network in DRG neurons. Description: qPCR of critical PPI network genes in DRG neurons treated with ambroxol. The class given is cell-based. The following applies: DRG neurons treated with 60 mM ambroxol (4 days), P-value<0.05, includes ATF3, FOS, JUN, SMAD1, SP1.
Description: as §1
Background: In qPCR the cycle at which signal appears reflects the starting amount.

For experiment [9], the system named is optic nerve / retinal ganglion cell axons. The experiment is described as follows: optic nerve regeneration after crush injury in C57BL/6 mice. The class given is in vivo, mouse. The following applies: between 200-500 um, after 2 weeks, vs control animals, p-value less than 0.04. How it is done: FIGS. 6A-6E. Ambroxol promotes retinal ganglion cell axonal regeneration. FIG. 6A: Ambroxol (Amb-25 mg/ml) or vehicle (Veh) was injected into the eye just before optic nerve crush (ONC-Day 1). Animals received daily […] of ambroxol (25 mg/ml) or vehicle by intraperitoneal (IP) injection from day 1 to day 14. At day 7 ambroxol (25 mg/ml) or vehicle was injected into the eye. Tracer CTB was injected into the eye on day 11 and animals sacrificed on day 14. FIG. 6B: Representative retina whole mount images with Tuj1 antibody staining 2 weeks post injury and (FIG. 6C) histogram depicting quantification of retinal ganglion cell (RGCs) survival measured by Tuj1 antibody staining Scale bar: 25 um FIG. 6D: Representative confocal images of optic nerve sections from WT animal treated with vehicle (n=10) and WT animal treated with ambroxol (25 mg/ml, n=13). Axons are labeled with CTB. Scale bar: 100 um. Measurements were made blinded to treatment. FIG. 6F: Quantification of number of axons in FIG. 6D as function of distance from crush site. T-test ** p<0.001 * p<0.05.
Ambroxol was tested for the ability to enhance CNS regeneration in vivo after injury. The optic nerve regeneration effect in mice after crush injury was evaluated after treating with and without ambroxol. […] In summary, a FDA approved drug—ambroxol accelerates and improves neural repair in the CNS. […]

The test system is the same in experiment [10]. The experiment is described as follows: optic nerve crush in PTEN knockout mice treated with ambroxol. It counts as in vivo, mouse. The following applies: at 2500 um, after 2 weeks, vs control animals, p-value 0.02. On the procedure:
FIGS. 15A-15E. Ambroxol promotes retinal ganglion cell axonal regeneration in PTEN knockout mice. Ambroxol (Amb-25 mg/ml) or vehicle (Veh) was injected into the eye just before optic nerve crush. Animals received daily 300 mg/kg of ambroxol or vehicle by intraperitoneal (IP) injection for the first five days after the crush and then they received 150 mg/kg until day 14. At day 7 ambroxol (25 mg/ml) or vehicle was injected into the eye. Tracer CTB was injected into the eye on day 11 and animals sacrificed on day 14. FIG. 15A: Representative confocal images of optic nerve sections from PTEN^−/− animal treated with vehicle (n=4) and PTEN^−/− animal treated with ambroxol (n=4). Axons are labeled with CTB. Scale bar: 100 um. Measurements were made blinded to treatment. FIG. 15B: Quantification of number of axons in […]. T-test ** p<0.01 * p<0.05. FIG. 15C: Representative retina whole mount images with Tuj1 and P-S6 antibody staining 2 weeks post injury and FIGS. 15D-15E: Quantification of retinal ganglion cell (RGCs) survival measured by Tuj1 and P-S6 antibody staining Scale bar: 25 um.
Without wishing to be bound by any theory, since ambroxol recapitulates many of the core expression changes in the M280, we reasoned that it would promote CNS regeneration. […]

T1 sequence (P60484 whole entry): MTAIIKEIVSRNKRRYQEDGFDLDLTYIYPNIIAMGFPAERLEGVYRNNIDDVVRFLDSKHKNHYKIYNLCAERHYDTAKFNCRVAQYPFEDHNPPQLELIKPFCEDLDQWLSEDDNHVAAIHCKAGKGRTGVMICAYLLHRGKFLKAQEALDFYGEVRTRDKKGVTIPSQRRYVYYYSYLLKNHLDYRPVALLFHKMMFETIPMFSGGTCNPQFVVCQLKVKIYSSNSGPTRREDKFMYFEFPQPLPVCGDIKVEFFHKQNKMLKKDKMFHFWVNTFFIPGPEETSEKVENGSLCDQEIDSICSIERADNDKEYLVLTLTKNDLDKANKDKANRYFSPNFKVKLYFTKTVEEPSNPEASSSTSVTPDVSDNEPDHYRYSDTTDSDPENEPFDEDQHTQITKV
T3 sequence (O54857 whole entry): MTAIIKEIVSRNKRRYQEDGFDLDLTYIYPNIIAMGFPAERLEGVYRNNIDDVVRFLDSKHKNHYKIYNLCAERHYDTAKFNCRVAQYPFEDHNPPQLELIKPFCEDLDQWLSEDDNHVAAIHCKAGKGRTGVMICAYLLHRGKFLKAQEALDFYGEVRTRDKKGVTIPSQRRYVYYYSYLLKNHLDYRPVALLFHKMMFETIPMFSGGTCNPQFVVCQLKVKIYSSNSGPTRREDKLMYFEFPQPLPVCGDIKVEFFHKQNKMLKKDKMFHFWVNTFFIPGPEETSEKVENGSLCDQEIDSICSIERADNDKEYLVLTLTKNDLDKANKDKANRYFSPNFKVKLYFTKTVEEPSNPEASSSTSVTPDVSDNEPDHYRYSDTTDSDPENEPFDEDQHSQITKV
T2 sequence (O08586 whole entry): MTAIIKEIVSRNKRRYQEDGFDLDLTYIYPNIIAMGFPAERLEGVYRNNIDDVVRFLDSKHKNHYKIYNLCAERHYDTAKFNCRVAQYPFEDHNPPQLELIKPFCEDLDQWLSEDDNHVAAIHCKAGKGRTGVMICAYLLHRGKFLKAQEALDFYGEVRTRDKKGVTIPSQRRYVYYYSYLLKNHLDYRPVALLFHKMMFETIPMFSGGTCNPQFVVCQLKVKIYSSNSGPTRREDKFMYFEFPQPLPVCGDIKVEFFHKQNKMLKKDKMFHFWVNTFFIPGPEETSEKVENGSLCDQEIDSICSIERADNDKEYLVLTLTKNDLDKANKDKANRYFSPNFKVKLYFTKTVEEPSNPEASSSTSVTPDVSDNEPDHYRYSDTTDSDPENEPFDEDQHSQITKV

Turning to `CC[C@@H](C(=O)[C@@H](C)[C@@H](O)[C@H](C)CCc1ccc(C)c(O)c1C(=O)O)[C@H]1O[C@](CC)([C@H]2CC[C@](O)(CC)[C@H](C)O2)C[C@@H]1C` [lasalocid], the “DRG neurite outgrowth after treatment with drugs” value in the experiment with DRG neurons is reported as “only ambroxol showed significant enhancement”. Besides, the “gene-expression levels of marker RAGs” value in [1] is given as “significant changes”.

As for `O=c1cc(-c2ccc(O)c(O)c2)oc2cc(O)cc(O)c12` [Luteolin, luteolin], the “expression level of phosphorylated form of AKT (denoting PTEN inhibition)” value at PTEN [2], on PTEN [3] and on PTEN [4] was “increased expression level of phosphorylated form of AKT” throughout.

Turning to `O=c1c(-c2ccc(O)cc2)coc2cc(O)cc(O)c12` [Genistein, genistein], the “expression level of phosphorylated form of STAT3 (denoting SOCS3 inhibition)” value on SOCS3 [5], at SOCS3 [6] and at SOCS3 [7] was “increased expression level of phosphorylated form of STAT3” each time.

Regarding `O=c1c(O)c(-c2ccc(O)c(O)c2)oc2cc(O)cc(O)c12` [Quercetin, quercetin], the “expression level of phosphorylated form of AKT (denoting PTEN inhibition)” value at PTEN [2], at PTEN [3] and on PTEN [4] was “increased expression level of phosphorylated form of AKT” each time.

On to `Cc1ccc(N(CC2=NCCN2)c2cccc(O)c2)cc1` [Phentolamine, phentolamine], for which the “expression level of phosphorylated form of STAT3 (denoting SOCS3 inhibition)” value on SOCS3 [5], on SOCS3 [6] and on SOCS3 [7] was “increased expression level of phosphorylated form of STAT3” throughout.

For `Nc1c(Br)cc(Br)cc1CNC1CCC(O)CC1` (stereo not drawn) [ambroxol, trans-4-(2-Amino-3,5-dibrombenzylamino)-cyclohexanol], the “number of genes with significant differential expression among 14 randomly tested genes from the M77” value in experiment [8] is listed as 8 genes. Further, in experiment [9], the “increase in axon regeneration beyond the site of the lesion” value is on record as more than 1.5 fold. Also, the “increase in regeneration beyond the site of the lesion” value in experiment [10] is given as more than 2.9 fold.
